According to the supplement of paper PMC10307832:

Key:
Assay in all cases: relative viability (nuclei count vs DMSO), 5 days (fraction); higher = more cells survive
[1] = compound: CC1=NN=C(O1)C2=NN=C(C=C2)N3CCC(CC3)OC4=C(C=CC(=C4)F)Cl + CS(=O)(=O)CCNCc1ccc(-c2ccc3ncnc(Nc4ccc(OCc5cccc(F)c5)c(Cl)c4)c3c2)o1 [Lapatinib] (partner 2 µM)
In short: (§1)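 Relative viability divides the nuclei count in treated wells by that in vehicle wells. Lung cancer cell lines were seeded in 1536-well plates, dosed by pin tool the next day, and fixed and stained after 5 days in one step with final 0.05% Triton X-100, 1% formaldehyde and 1 ug/ml Hoechst. Dosing was a single drug or a fixed anchor-drug dose plus five library-drug doses (not always all listed) in √10 steps, and values are medians of duplicate plates imaged at 4×.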

[2] = compound: CC(C)C[C@@H](C(=O)N[C@H](C(=O)OC1CCCC1)c1ccccc1)[C@H](O)C(=O)NO [Tosedostat] + Cc1nc(Nc2ncc(C(=O)Nc3c(C)cccc3Cl)s2)cc(N2CCN(CCO)CC2)n1 [Dasatinib] (partner 0.075 µM)
In short: as §1

[3] = compound: CC(C)C[C@@H](C(=O)N[C@H](C(=O)OC1CCCC1)c1ccccc1)[C@H](O)C(=O)NO [Tosedostat] + C[C@]1(O)C[C@@H](c2nc(-c3ccc4ccc(-c5ccccc5)nc4c3)c3c(N)nccn32)C1 [Linsitinib] (partner 1 µM)
In short: as §1

[4] = compound: CC(C)C[C@@H](C(=O)N[C@H](C(=O)OC1CCCC1)c1ccccc1)[C@H](O)C(=O)NO [Tosedostat] + Nc1nc2[nH]cc(CCc3ccc(C(=O)N[C@@H](CCC(=O)O)C(=O)O)cc3)c2c(=O)[nH]1 [Pemetrexed] (partner 0.2 µM)
In short: as §1

Cell Line	relative viability ([1]; first compound 0.253 µM)	relative viability ([1]; first compound 0.8 µM)	relative viability ([1]; first compound 2.53 µM)	relative viability ([1]; first compound 8 µM)	relative viability ([2]; first compound 0.02 µM)	relative viability ([2]; first compound 0.06325 µM)	relative viability ([2]; first compound 0.2 µM)	relative viability ([2]; first compound 0.6325 µM)	relative viability ([2]; first compound 2 µM)	relative viability ([3]; first compound 0.02 µM)	relative viability ([3]; first compound 0.06325 µM)	relative viability ([3]; first compound 0.2 µM)	relative viability ([3]; first compound 0.6325 µM)	relative viability ([3]; first compound 2 µM)	relative viability ([4]; first compound 0.02 µM)	relative viability ([4]; first compound 0.06325 µM)	relative viability ([4]; first compound 0.2 µM)	relative viability ([4]; first compound 0.6325 µM)	relative viability ([4]; first compound 2 µM)
HCC-15	0.418	0.408	0.415	0.414	0.64	0.625	0.578	0.559	0.462	0.826	0.876	0.848	0.831	0.672	0.234	0.221	0.213	0.243	0.249
HCC-44	0.324	0.439	0.383	0.43	–	–	–	–	–	0.59	0.656	0.688	0.681	0.473	0.69	0.68	0.679	0.642	0.639
LCLC-103H	–	–	–	–	0.49	0.523	0.503	0.366	0.341	1.29	1.08	1.06	1.18	1.36	0.507	0.522	0.533	0.494	0.57
NCI-H1299	0.737	0.718	0.752	0.687	–	–	–	–	–	1.13	0.878	0.984	0.878	0.839	–	–	–	–	–
ABC-1	1.13	1.07	0.92	0.887	0.632	0.598	0.519	0.563	0.481	0.95	0.868	0.854	0.773	0.626	–	–	–	–	–
NCI-H1703	1.06	0.795	0.904	0.76	–	–	–	–	–	0.56	0.628	0.553	0.556	0.473	–	–	–	–	–
ChaGo-K-1	–	–	–	–	0.662	0.567	0.587	0.535	0.394	–	–	–	–	–	0.269	0.257	0.275	0.267	0.275
NCI-H1648	–	–	–	–	–	–	–	–	–	–	–	–	–	–	0.656	0.736	0.99	0.966	0.532
A549	0.523	0.365	0.4	0.425	–	–	–	–	–	0.663	0.621	0.562	0.532	0.608	–	–	–	–	–
NCI-H522	–	–	–	–	0.901	0.982	0.858	0.843	0.945	–	–	–	–	–	1.14	1.02	1.06	1.06	0.979
NCI-H2170	0.268	0.241	0.291	0.26	0.575	0.514	0.558	0.63	0.451	–	–	–	–	–	0.262	0.29	0.244	0.348	0.352
NCI-H1623	–	–	–	–	0.585	0.542	0.607	0.552	0.601	–	–	–	–	–	–	–	–	–	–
SW 900	–	–	–	–	0.54	0.485	0.714	0.875	0.416	–	–	–	–	–	0.513	0.527	0.527	0.474	0.486
IA-LM	0.283	0.241	0.257	0.275	–	–	–	–	–	0.688	0.596	0.463	0.445	0.474	–	–	–	–	–
EBC-1	0.208	0.191	0.182	0.197	–	–	–	–	–	0.843	0.808	0.977	0.581	0.585	–	–	–	–	–
